# Data as given in patent US20090247636A1, “AGENT FOR SUPPRESSION OF GASTRIC EMPTYING COMPRISING 4-HYDROXYISOLEUCINE” (AJINOMOTO CO., INC.,, priority 2006, published 2009).
# Key:
# gastric emptying = assay: Gastric emptying-suppressive action (phenol red test meal); format: in vivo, Sprague Dawley rats; conditions: 500 mg/kg oral, test meal 1 hour later, stomach isolated after 90 minutes, vs vehicle, p<0.05, FIG. 1
# Procedure: Male Sprague Dawley rats (12 weeks of age, Charles River Laboratories Japan Inc.) (n=5) were used. After fasting for 20 hours, distilled water for injection (5 mL/kg) was orally administered to a vehicle group and 4-hydroxyisoleucine (500 mg/5 mL/kg) was orally administered to a 4-hydroxyisoleucine administration group. One hour later, a test meal (1.5% methylcellulose, 0.05% phenol red, 1.5 ml) was orally administered. After 90 minutes, the stomach was isolated under an ether anesthesia, the gastric contents were recovered and the remaining phenol red was quantified. A control group was prepared. After fasting for 20 hours, a test meal (1.5% methylcellulose, 0.05% phenol red, 1.5 mL) was orally administered. Immediately after administration of the test meal, the stomach was isolated under an ether anesthesia, the gastric contents were recovered and the remaining phenol red was quantified. The gastric emptying was calculated by the following formula.
# Gastric emptying (%)=(1-phenol red amount of each individual/average phenol red amount of control group*)×100*:test meal alone was administered, n=2
# The difference between the 4-hydroxyisoleucine (HIL) administration group and the distilled water for injection (vehicle) administration group was detected according to Student's t test, and p<0.05 was judged as significant.
# [1] = in vivo; cited from earlier work
# food intake = assay: Food intake suppressive action (cumulative feed intake); format: in vivo, Wistar rats; conditions: 500 mg/kg oral after fasting for 9 hours, vs vehicle, p<0.05, FIG. 2
# Procedure: Male Wistar rats (7 weeks of age, Charles River Laboratories Japan Inc.) (n=5) were used. After fasting for 9 hours, distilled water for injection (5 mL/kg) or 4-hydroxyisoleucine (50, 150, 500 mg/5 mL/kg) was orally administered at 18:00. Immediately thereafter, feeding was started. The cumulative feed intake was measured at 30 min, 1 hr, 3 hr and 16 hr after the administration. […] The difference between the 4-hydroxyisoleucine administration group and the distilled water for injection (vehicle) administration group was detected according to Student's t test, and p<0.05 was judged as significant.
# insulin secretion = conditions: in vitro; cited from earlier work
# body weight gain = conditions: high-fat diet-fed mouse; cited from earlier work
compound,measurement,setting,value
C[C@@H]([C@H](C)O)[C@H](N)C(=O)O [4-hydroxyisoleucine],Gastric emptying (%),gastric emptying,significantly suppressed
same,antidiabetic action,[1],an antidiabetic action
same,food intake (cumulative feed intake),food intake,significantly suppressed
same,insulin secretagogue action,insulin secretion,shows an insulin secretagogue action
same,suppression of body weight gain,body weight gain,does not show such action
